This is an account of results in patent US20250222082A1, “PROTEIN AND PEPTIDE VACCINES TARGETING METHANOGENS” (Arkea Bio Corp., priority 2024, published 2025).

For data set [1] the following is noted: buffer, 24 h.
Procedure: (§1) The solution was then placed in an ultrasonic bath for ˜4 hr and then allowed to equilibrate over 24 h.
In data set [2] the test system is Mbb. ruminantium, Ms. mazei, and Mm. mobile. The settings on record: cited from earlier work.
Data set [3] in a line: Adsorbent study: reduction of 3NOP concentration in solution (HPLC 230 nm). To be noted: 0.2 g of adsorbent in 10 mL of 1% 3NOP/H2O; 24 h; control 8.258 mM.
Procedure: as §1
The nature of data set [4]: 3NOP pH and temperature stability (HPLC). To be noted: 1-month time period, 4-30 C, pH 4-10. The class given is physicochemical. An excerpt:
3NOP pH and Temperature Stability: Confirmed via HPLC over a 1-month time period at temperature between 4-30 C and pH 4-10.

The next data set deals with methane production. The settings on record: cited from earlier work.
A short description of data set [5]: 3NOP volatility (mass loss in open vial). It counts as physicochemical. The settings on record: 500 mg in 5 dram vial open to air, ˜18-24 C, 15-30% RH, 6 days. The protocol:
3NOP Volatility: 500 mg of 3NOP in a 5 dram vial was left open to air at ˜18-24 C at 15-30% RH over the course of 6 days. Average mass loss is ˜0.25% per day.

Where two headings read alike, the source gives them in different places.

For the compound `NC(=O)CC[C@H](N)C(=O)O` [Glutamine], in data set [1] (20 mg/mL), the “3NOP concentration remaining in solution” value was determined as 7.588 mM. Regarding `O=S(=O)(O)CCCBr` [BPS, 3-bromopropanesulfonate], in data set [2] (up to 250 μmol/L, all three species), the “sensitivity of methanogens in pure cultures” value is recorded as “resistant”. `O=S(=O)([O-])[O-].O=S(=O)([O-])[O-].O=S(=O)([O-])[O-].[Bi+3].[Bi+3]` [Bismuth Sulfate]: the “3NOP concentration remaining in solution” value in data set [3] turned out to be 8.079 mM.

With `O=[N+]([O-])OCCCO` [Group 3NOP, 3-Nitrooxypropanol], in data set [4], the “3NOP pH and Temperature Stability” value was “Confirmed”. The “maximum methane suppression amount” value in the data set on methane production (60 mg/kg of feed dry matter) was 26%/day (Melgar et al., 2020). Further, in data set [5], the “3NOP Volatility: average mass loss” value is roughly 0.25 % per day. On to `O=c1[nH]c(=O)c2nccnc2[nH]1` [lumazin, 2,4-pteridinedione], for which the “CH4 production by Mbb. ruminantium, Ms. mazei, and Mm. mobile” value in data set [2] (dose-dependent from 0.06 to 0.24 mmol/L) is given as “significantly decreased”.

With `O=S(=O)([O-])[O-].[Cu+2]` [Copper Sulfate], in data set [3], the “3NOP concentration remaining in solution” value came out at 7.814 mM. For the compound `O=[N+]([O-])O` [Nitrate], the “maximum methane suppression amount” value with methane production (5 mM) is on record as 5 mM; 43.26% Lin rt al., 2017); in the data set on methane production (5 mmol/L) it was 5 mmol/L; 32.92%; in the data set on methane production (20 mg/g dry matter), 20 mg/g dry matter; 21%.

With `NCCCC[C@H](N)C(=O)O` [Lysine], the “3NOP concentration remaining in solution” value in data set [1] (50 mg/mL) is reported as 18.583 mM. Still for that read-out and setting: the figure for `N=C(N)NCCC[C@H](N)C(=O)O` [Arginine] is 19.782 mM. As to Cyclodextrin, in data set [3], the “3NOP concentration remaining in solution” value stood at 7.676 mM. Turning to `O=C([O-])CC(O)(CC(=O)[O-])C(=O)[O-].[Bi+3]` [Bismuth Citrate], the “3NOP concentration remaining in solution” value in data set [3] is listed as 8.072 mM.
